Measured values published in patent US20220324958A1, “ANTI-INFLAMMATORY PEPTIDES, PHARMACEUTICAL COMPOSITION CONTAINING SUCH PEPTIDES, AND USES THEREOF” (INSTITUTO BUTANTAN, priority 2019, published 2022).
“Also recorded” adds a separate entry of the source.

Columns and labels:
[1] = system: osteoclast precursors (PBMNC); test: Osteoclast differentiation model, TRAP+ cell count; assay type: cell-based, human; conditions: peptide 200 nM added on day four to osteoclast precursor culture, 15 days; compared to positive control (CTRL)
Description: A. Positive differentiation controls. B. Influence of synthetic peptides (200 nM) on osteoclast differentiation. C. Negative differentiation control. αMEM—Minimum Essential Medium Eagle Alpha Modification; FBS—fetal bovine serum; TRANCE—Tumor Necrosis Factor (TNF)-related Activation-induced Cytokine; M-CSF—Macrophage Colony-Stimulating Factor; TGF-β1—Transforming growth factor beta-1.
The present invention includes the culture of monocytic cells of human leukemia (THP-1), osteoclast, primary human blood-derived mononuclear cells (PBMNC), and human chondrocytes (NHAC-kn).
Negative differentiation controls. B. Influence of synthetic peptides (200 nM) on osteoclast differentiation.
PBMNC were isolated and, immediately after, plating inductive culture medium (composed of Alpha-MEM+10% FBS+MCSF [25 ng/mL]+RANKL [50 ng/mL]+TGF-beta 1 [5 ng/mL]+Dexamethasone [1 μM]) was added for 15 days. On day four, the L. obliqua venom at a concentration of […] or toxins at a concentration of 200 nM, each individually, was added to the osteoclast precursor culture and these culture conditions were maintained until the end of the differentiation. Then, the cells were fixed and stained with tartrate-resistant acid phosphatase (TRAP).

[2] = system: neurons obtained from SHSY5Y cells; test: Anti-nociceptive/anti-inflammatory model, neurons stimulated with glycated collagen (GC): substance P and β-endorphin in supernatant; assay type: cell-based
Description: ANOVA and Dunnet * p<0.05; ** p<0.01 compared to glycated collagen (GC);
ANOVA and Dunnet * p<0.05 ** p<0.01, *** p<0.001 compared with GC;
The differentiation process consists of 6 stages distributed over 7 days. On the first day of the differentiation protocol (day 0), cells were seeded in collagen-coated plates. On days 1, 3, and 4 the culture medium was removed, and the differentiation medium containing 2% fetal bovine serum (FBS) and retinoic acid (RA) 10 μM) was added. On day 5, the medium was removed and the culture was incubated with culture medium and brain-derived neurotrophic factor (BDNF) (50 ng/mL). On day 7 of the differentiation process, differentiated neurons are fully ready for use (Agholme et al., 2010, with some modifications).
7×10^3 neurons/well were incubated with 10 μM of morphine (inhibitory response control) or peptides (200 nM and 500 nM) 3 hours before or 3 hours after incubation with IL-1β (10 ng/mL) or glycated collagen (GC) (100 μg/mL) (both positive controls for the release of substance P). After 24 hours of incubation, the cell viability assay and the detection of substance P and β-endorphin in the supernatant were performed. Multiplex with magnetic spheres (MILLIPLEX® MAP Magnetic Bead Panel)
ANOVA and Dunnet * p<0.05; ** p<0.01 compared to GC.
ANOVA and Dunnet * p<0.05 ** p<0.01, *** p<0.001 compared to GC.

[3] = system: human chondrocytes (NHAC-kn); test: Pro-inflammatory model of chondrocytes treated with IL-1β, cytokine release (Multiplex); assay type: cell-based; conditions: chondrocytes treated with IL-1β (1 ng/mL)
Description: Values were obtained from each analyte in pg/mL from treatment with the peptides in the presence of IL-1β (1 ng/mL). The data are presented as the mean±MSE (* p<0.05 when compared to the control with IL-1β, test t, n=3).
(B) Chondrocytes were pretreated for 1 hour with IL-1β (1 ng/mL) before the addition of peptides (200 nM, 500 nM, and 1.25 μM) and an additional incubation of 24 hours before collecting the supernatants.
The primary human chondrocytes used in this assay were purchased from Lonza: Normal Human Articular Primary chondrocytes (NHAC-Kn, #CC-2550, Lot 8F3336). Chondrocyte cell culture was performed in bottles (Sarstedt T175 and T75). The cells were cultivated in DMEM culture medium (Sigma) supplemented with 10% fetal bovine serum (FBS) (Sigma), incubated in an oven at 37° C. and 5% CO2, and cultures were used in the sixth passage. The culture medium was changed every two days until the culture reached 80% confluence.
The identification and quantitative analysis of the cytokines present in the peptide treatment supernatant were performed using the Luminex xMAP Milliplex MAP Human Cytokine/Chemokine Magnetic Bead Panel Catalog #HCYTOMAG-60K technology, according to the manufacturer's instructions.
Values were obtained from each analyte in pg/mL from treatment with the peptides in the presence of IL-1β (1 ng/mL). The data are presented as the mean±MSE (*p<0.05 when compared to the control with IL-1β, test t, n=3).

[4] = system: THP-1 cells differentiated into macrophages; test: LPS-induced cytokine production in THP-1-derived macrophages (Multiplex); assay type: cell-based, human
Description: THP-1 cells differentiated into macrophages were induced with LPS (10 ng/mL) and, one hour later, treated with synthetic peptides at a concentration of 200 nM. Dexamethasone (10 μM), an inflammatory inhibitor, was used as a control. After 24 hours, the culture medium was collected to measure the IL-1β (A), IL-6 (B), TNF-α (C), and IL-10 cytokines using a Multiplex kit. * p<0.05 vs. LPS; ** p<0.01 vs. LPS; *** p<0.005 vs. LPS;
THP-1 cells differentiated into macrophages were induced with LPS (10 ng/mL) and, one hour later, treated with L4 or D3 peptide (0.05 μM, 0.2 μM, 1 μM, and 2 μM). After 24 hours, the culture medium was collected and TNF-alpha, IL-6, IL-23, and IL-8 were measured by Multiplex. (A) L4 peptide. (B) D3 peptide;
Macrophages were obtained from the differentiation of monocytes THP-1. Briefly, 1×10^7 cells were treated in the RPMI medium with 25 nM PMA for 48 hours followed by 24 hours of rest in medium without PMA. Subsequently, the cells were released and plated for the respective treatments.
The kit is based on Luminex® xMAP® technology that allows the simultaneous analysis of various cytokines. The technique is based on marked magnetic fluorescent spheres, known as MagPlex®-C microspheres. These microspheres are covered with capture antibodies specific for IL-6 […], and specifically capture the analyte in the supernatant. Each microsphere was individually identified and the results were analyzed using Luminex® Xponent® 4.2 acquisition software.
THP-1 cells differentiated into macrophages were induced with LPS (10 ng/mL) and, one hour later, treated with synthetic peptides, […] (inflammation inhibitor, 10 μM). After 24 hours, the culture medium was collected and IL-1β (A), IL-6 (B), TNF-α (C), and IL-10 were measured by Multiplex. * p<0.05 vs. LPS; ** p<0.01 vs. LPS; *** p<0.005 vs. LPS.
THP-1 cells differentiated into macrophages were induced with LPS (10 ng/mL) and, one hour after, treated with L4 (0.05 μM, 0.2 μM, 1 μM, and 2 μM). After 24 hours, the culture medium was collected and TNF-α, IL-6, IL-23, and IL-8 were measured by Multiplex. (A) L4 peptide. (B) D3 peptide.

[5] = peptide 200 nM incubated 3 hours after GC (100 μg/mL)
[6] = LPS 10 ng/mL, peptide 200 nM one hour later, 24 hours, vs group treated only with LPS
[7] = dose-response 0.05, 0.2, 1 and 2 μM, LPS 10 ng/mL, 24 hours

“EEQTHFHFESPKLISFKVQDYWILNDIMKKNLTGISLKSEEEDADSGEID (Designated peptide based on the motif of a group of proteins called hemoline from lepidoptera acting as an anti-inflammatory molecule) [Cambly, peptide derived from the Amblyomin-X molecule with characteristics of CPP (cell-penetrating peptides)]” was tested, and the “number of TRAP+ cells” value [1] was “reduced”, the “production of Substance P” value [2, 5] was “significantly inhibited” and the “production of β-endorphin” value [2, 5] was “increased”. The “production of Substance P” value ([2]; peptide (200 nM and 500 nM) incubated 3 hours before GC (100 μg/mL)) was “significantly decrease; also recorded: inhibited” and the “production of β-endorphin” value ([2]; peptide incubated 3 hours before GC (100 μg/mL)) was “did not affect”.

For “IWTKDGKAIT (Designated peptide based on the motif of a group of proteins called hemoline from lepidoptera acting as an anti-inflammatory molecule) [L1]”, the “anti-inflammatory activity (release of G-CSF, GM-CSF, IL-6, IL-8, MCP-1, TNF-α)” value [3] was “anti-inflammatory activity”.

With “NYFKNGKDVN (Designated peptide based on the motif of a group of proteins called hemoline from lepidoptera acting as an anti-inflammatory molecule) [L2]” the “anti-inflammatory activity (release of G-CSF, GM-CSF, IL-6, IL-8, MCP-1, TNF-α)” value [3] was “anti-inflammatory activity” and the “number of TRAP+ cells” value [1] was “no statistically significant difference”.

In the case of “QPEISWTRNK (Designated peptide based on the motif of a group of proteins called hemoline from lepidoptera acting as an anti-inflammatory molecule) [L6]”, the “anti-inflammatory activity (release of G-CSF, GM-CSF, IL-6, IL-8, MCP-1, TNF-α)” value [3] is reported as “anti-inflammatory activity”.

With “RWLKDGQAFH (Designated peptide based on the motif of a group of proteins called hemoline from lepidoptera acting as an anti-inflammatory molecule) [L8]” the “anti-inflammatory activity (release of G-CSF, GM-CSF, IL-6, IL-8, MCP-1, TNF-α)” value [3] was “anti-inflammatory activity”.

For “SWLKNGREFR (Designated peptide based on the motif of a group of proteins called hemoline from lepidoptera acting as an anti-inflammatory molecule) [L5]”, the “anti-inflammatory activity (release of G-CSF, GM-CSF, IL-6, IL-8, MCP-1, TNF-α)” value [3] was “anti-inflammatory activity”.

With “TWNKKGKKVN (Designated peptide based on the motif of a group of proteins called hemoline from lepidoptera acting as an anti-inflammatory molecule) [L4]” the “anti-inflammatory activity (release of G-CSF, GM-CSF, IL-6, IL-8, MCP-1, TNF-α)” value [3] was “anti-inflammatory activity”, the “levels of IL-10 (anti-inflammatory cytokine)” value ([4]; LPS 10 ng/mL, peptide 200 nM one hour later, 24 hours) was “increase” and the “levels of IL-1β” value [4, 6] was “significantly reducing”. For the same molecule, the “levels of IL-6” value [4, 6] was “significantly reducing”, the “levels of TNF-a” value [4, 6] was “significantly reducing” and the “dose achieving the greatest inhibition of IL-6 release” value [4, 7] was 200 nM. For the same molecule, the “dose achieving the greatest inhibition of IL-8 release” value [4, 7] was 200 nM, the “most effective dose concerning IL-23 release” value [4, 7] was 1 µM and the “most effective dose concerning TNF-α release” value [4, 7] was 1 µM. For the same molecule, the “production of inflammatory cytokines in response to LPS (dose-dependent)” value ([4]; dose-response 0.05-2 μM, TNF-α, IL-6, IL-23, IL-8) was “reduced”.

In the case of “VWRKNGKKVS (Designated peptide based on the motif of a group of proteins called hemoline from lepidoptera acting as an anti-inflammatory molecule) [L3]”, the “anti-inflammatory activity (release of G-CSF, GM-CSF, IL-6, IL-8, MCP-1, TNF-α)” value [3] is reported as “anti-inflammatory activity”.

For “YSIVAGCL (Designated peptide based on the motif of a group of proteins called hemoline from lepidoptera acting as an anti-inflammatory molecule) [E8]”, the “anti-inflammatory activity (release of G-CSF, GM-CSF, IL-6, IL-8, MCP-1, TNF-α)” value [3] was “anti-inflammatory activity”, the “production of Substance P” value [2, 5] was “significantly inhibited” and the “production of β-endorphin” value [2, 5] was “increased”.

B1: YAIGYSSKDYKGGGGEEQTHFHFESPKLISFKVQDYWILNDIMKKNLTGISLKSEEEDADSGEID (peptide)
chain: YAIGYSSKDYKGGGGEEQTHFHFESPKLISFKVQDYWILNDIMKKNLTGISLKSEEEDADSGEID
modifications: Designated peptide based on the motif of a group of proteins called hemoline from lepidoptera acting as an anti-inflammatory molecule
For B1, the “production of Substance P” value [2, 5] was “significantly inhibited” and the “production of β-endorphin” value [2, 5] was “increased”.

B2: YSIVAGSLGGGGEEQTHFHFESPKLISFKVQDYWILNDIMKKNLTGISLKSEEEDADSGEID (peptide)
chain: YSIVAGSLGGGGEEQTHFHFESPKLISFKVQDYWILNDIMKKNLTGISLKSEEEDADSGEID
modifications: Designated peptide based on the motif of a group of proteins called hemoline from lepidoptera acting as an anti-inflammatory molecule
For B2, the “number of TRAP+ cells” value [1] was “significant decrease; also recorded: reduced”.
